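Where inhibition never reached the appropriate level, the endpoint shown equals the highest concentration tested. Otherwise, values were interpolated linearly from a five-concentration, 48-hour dose response in 96-well plates. Abbreviation: GI50, concentration required for 50% inhibition of growth.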 Calls of active or inactive are those of the source. Cut-off read from the data, not from the text of the source: active = GI50 up to about 1.1 µM and inactive = higher.
Legend:
Experiment in all cases: NCI-60 cell line screen, 48 h
786-0 = tested on: 786-0
COLO 205 = tested on: COLO 205
HCT-15 = tested on: HCT-15
OVCAR-3 = tested on: OVCAR-3
SN12C = tested on: SN12C
UACC-62 = tested on: UACC-62
NCI/ADR-RES = tested on: NCI/ADR-RES
A549 = tested on: A549
NCI-H23 = tested on: NCI-H23
DU-145 = tested on: DU-145
SNB-19 = tested on: SNB-19
HOP-92 = tested on: HOP-92
HCC 2998 = tested on: HCC 2998
OVCAR-5 = tested on: OVCAR-5
SF-295 = tested on: SF-295
HOP-62 = tested on: HOP-62
RXF 393 = tested on: RXF 393
SR = tested on: SR
HT-29 = tested on: HT-29
Malme-3M = tested on: Malme-3M
SW-620 = tested on: SW-620
CCRF-CEM = tested on: CCRF-CEM
SK-MEL-2 = tested on: SK-MEL-2
SK-MEL-28 = tested on: SK-MEL-28
ACHN = tested on: ACHN
NCI-H226 = tested on: NCI-H226
LOX IMVI = tested on: LOX IMVI
NCI-H522 = tested on: NCI-H522
HCT-116 = tested on: HCT-116
RPMI-8226 = tested on: RPMI-8226
CAKI-1 = tested on: CAKI-1
T47D = tested on: T47D
MDA-MB-231 = tested on: MDA-MB-231
MCF7 = tested on: MCF7
MDA-N = tested on: MDA-N
SF-268 = tested on: SF-268
UO-31 = tested on: UO-31
SF-539 = tested on: SF-539
SK-MEL-5 = tested on: SK-MEL-5
OVCAR-4 = tested on: OVCAR-4
OVCAR-8 = tested on: OVCAR-8
MOLT-4 = tested on: MOLT-4
BT-549 = tested on: BT-549
Hs-578T = tested on: Hs-578T
A498 = tested on: A498
KM12 = tested on: KM12
UACC-257 = tested on: UACC-257
IGROV-1 = tested on: IGROV-1
MDA-MB-435 = tested on: MDA-MB-435
NCI-H460 = tested on: NCI-H460
EKVX = tested on: EKVX
PC-3 = tested on: PC-3
TK-10 = tested on: TK-10
M14 = tested on: M14
SNB-75 = tested on: SNB-75
U-251 = tested on: U-251
SK-OV-3 = tested on: SK-OV-3
K562 = tested on: K562
HL-60 = tested on: HL-60

Structure (SMILES): CCn1c(=O)c2cn[nH]c2n(C)c1=O
- GI50 (786-0): > 100 µM (inactive)
- GI50 (COLO 205): > 100 µM (inactive)
- GI50 (HCT-15): > 100 µM
- GI50 (OVCAR-3): > 100 µM (inactive)
- GI50 (SN12C): > 100 µM (inactive)
- GI50 (UACC-62): > 100 µM (inactive)
- GI50 (NCI/ADR-RES): > 100 µM (inactive)
- GI50 (A549): > 100 µM (inactive)
- GI50 (NCI-H23): > 100 µM (inactive)
- GI50 (DU-145): > 100 µM (inactive)
- GI50 (SNB-19): > 100 µM (inactive)
- GI50 (HOP-92): > 100 µM (inactive)
- GI50 (HCC 2998): > 100 µM (inactive)
- GI50 (OVCAR-5): > 100 µM (inactive)
- GI50 (SF-295): > 100 µM (inactive)
- GI50 (HOP-62): > 100 µM (inactive)
- GI50 (RXF 393): > 100 µM (inactive)
- GI50 (SR): > 100 µM (inactive)
- GI50 (HT-29): > 100 µM (inactive)
- GI50 (Malme-3M): > 100 µM (inactive)
- GI50 (SW-620): > 100 µM (inactive)
- GI50 (CCRF-CEM): > 100 µM (inactive)
- GI50 (SK-MEL-2): > 100 µM (inactive)
- GI50 (SK-MEL-28): > 100 µM (inactive)
- GI50 (ACHN): > 100 µM (inactive)
- GI50 (NCI-H226): > 100 µM (inactive)
- GI50 (LOX IMVI): > 100 µM (inactive)
- GI50 (NCI-H522): > 100 µM (inactive)
- GI50 (HCT-116): > 100 µM (inactive)
- GI50 (RPMI-8226): > 100 µM (inactive)
- GI50 (CAKI-1): > 100 µM (inactive)
- GI50 (T47D): > 100 µM (inactive)
- GI50 (MDA-MB-231): > 100 µM (inactive)
- GI50 (MCF7): > 100 µM (inactive)
- GI50 (MDA-N): > 100 µM (inactive)
- GI50 (SF-268): > 100 µM (inactive)
- GI50 (UO-31): > 100 µM (inactive)
- GI50 (SF-539): > 100 µM (inactive)
- GI50 (SK-MEL-5): > 100 µM (inactive)
- GI50 (OVCAR-4): > 100 µM (inactive)
- GI50 (OVCAR-8): > 100 µM (inactive)
- GI50 (MOLT-4): > 100 µM (inactive)
- GI50 (BT-549): > 100 µM (inactive)
- GI50 (Hs-578T): > 100 µM (inactive)
- GI50 (A498): > 100 µM (inactive)
- GI50 (KM12): > 100 µM (inactive)
- GI50 (UACC-257): > 100 µM (inactive)
- GI50 (IGROV-1): 66.7 µM (inactive)
- GI50 (MDA-MB-435): > 100 µM (inactive)
- GI50 (NCI-H460): > 100 µM (inactive)
- GI50 (EKVX): > 100 µM (inactive)
- GI50 (PC-3): > 100 µM (inactive)
- GI50 (TK-10): > 100 µM (inactive)
- GI50 (M14): > 100 µM (inactive)
- GI50 (SNB-75): > 100 µM (inactive)
- GI50 (U-251): > 100 µM (inactive)
- GI50 (SK-OV-3): > 100 µM (inactive)
- GI50 (K562): > 100 µM (inactive)

Structure (SMILES): Nc1ncnc2c1ncn2[C@H]1C=C[C@@H](NO)C1
- GI50 (786-0): > 100 µM (inactive)
- GI50 (COLO 205): > 100 µM (inactive)
- GI50 (HCT-15): > 100 µM
- GI50 (OVCAR-3): > 100 µM (inactive)
- GI50 (SN12C): > 100 µM (inactive)
- GI50 (UACC-62): > 100 µM (inactive)
- GI50 (NCI/ADR-RES): > 100 µM (inactive)
- GI50 (A549): > 100 µM (inactive)
- GI50 (NCI-H23): > 100 µM (inactive)
- GI50 (DU-145): > 100 µM (inactive)
- GI50 (SNB-19): > 100 µM (inactive)
- GI50 (HOP-92): > 100 µM (inactive)
- GI50 (HCC 2998): > 100 µM (inactive)
- GI50 (OVCAR-5): > 100 µM (inactive)
- GI50 (SF-295): > 100 µM (inactive)
- GI50 (HOP-62): > 100 µM (inactive)
- GI50 (RXF 393): > 100 µM (inactive)
- GI50 (SR): > 100 µM (inactive)
- GI50 (Malme-3M): > 100 µM (inactive)
- GI50 (SW-620): > 100 µM (inactive)
- GI50 (CCRF-CEM): > 100 µM (inactive)
- GI50 (SK-MEL-2): > 100 µM (inactive)
- GI50 (SK-MEL-28): > 100 µM (inactive)
- GI50 (ACHN): > 100 µM (inactive)
- GI50 (NCI-H226): > 100 µM (inactive)
- GI50 (LOX IMVI): > 100 µM (inactive)
- GI50 (NCI-H522): > 100 µM (inactive)
- GI50 (HCT-116): > 100 µM (inactive)
- GI50 (RPMI-8226): > 100 µM (inactive)
- GI50 (CAKI-1): > 100 µM (inactive)
- GI50 (T47D): > 100 µM (inactive)
- GI50 (MDA-MB-231): > 100 µM (inactive)
- GI50 (MCF7): > 100 µM (inactive)
- GI50 (MDA-N): > 100 µM (inactive)
- GI50 (SF-268): > 100 µM (inactive)
- GI50 (UO-31): > 100 µM (inactive)
- GI50 (SF-539): > 100 µM (inactive)
- GI50 (SK-MEL-5): > 100 µM (inactive)
- GI50 (OVCAR-4): > 100 µM (inactive)
- GI50 (OVCAR-8): > 100 µM (inactive)
- GI50 (MOLT-4): > 100 µM (inactive)
- GI50 (BT-549): > 100 µM (inactive)
- GI50 (Hs-578T): > 100 µM (inactive)
- GI50 (A498): > 100 µM (inactive)
- GI50 (KM12): > 100 µM (inactive)
- GI50 (UACC-257): > 100 µM (inactive)
- GI50 (IGROV-1): > 100 µM (inactive)
- GI50 (MDA-MB-435): > 100 µM (inactive)
- GI50 (NCI-H460): > 100 µM (inactive)
- GI50 (EKVX): > 100 µM (inactive)
- GI50 (PC-3): > 100 µM (inactive)
- GI50 (TK-10): > 100 µM (inactive)
- GI50 (M14): > 100 µM (inactive)
- GI50 (SNB-75): > 100 µM (inactive)
- GI50 (U-251): > 100 µM (inactive)
- GI50 (SK-OV-3): > 100 µM (inactive)
- GI50 (K562): > 100 µM (inactive)

Structure (SMILES): O[C@H]1[C@H]2[C@H](O)C[C@H](CCOCc3ccccc3)CN2C[C@H]1O
- GI50 (786-0): > 100 µM (inactive)
- GI50 (COLO 205): > 100 µM (inactive)
- GI50 (HCT-15): > 100 µM
- GI50 (OVCAR-3): > 100 µM (inactive)
- GI50 (SN12C): > 100 µM (inactive)
- GI50 (UACC-62): > 100 µM (inactive)
- GI50 (NCI/ADR-RES): > 100 µM (inactive)
- GI50 (A549): > 100 µM (inactive)
- GI50 (NCI-H23): > 100 µM (inactive)
- GI50 (DU-145): > 100 µM (inactive)
- GI50 (SNB-19): > 100 µM (inactive)
- GI50 (HOP-92): > 100 µM (inactive)
- GI50 (HCC 2998): > 100 µM (inactive)
- GI50 (OVCAR-5): > 100 µM (inactive)
- GI50 (SF-295): > 100 µM (inactive)
- GI50 (RXF 393): > 100 µM (inactive)
- GI50 (SR): > 100 µM (inactive)
- GI50 (HT-29): > 100 µM (inactive)
- GI50 (Malme-3M): > 100 µM (inactive)
- GI50 (SW-620): > 100 µM (inactive)
- GI50 (CCRF-CEM): > 100 µM (inactive)
- GI50 (SK-MEL-2): > 100 µM (inactive)
- GI50 (HL-60): > 100 µM (inactive)
- GI50 (SK-MEL-28): > 100 µM (inactive)
- GI50 (ACHN): > 100 µM (inactive)
- GI50 (NCI-H226): > 100 µM (inactive)
- GI50 (LOX IMVI): > 100 µM (inactive)
- GI50 (NCI-H522): > 100 µM (inactive)
- GI50 (HCT-116): > 100 µM (inactive)
- GI50 (RPMI-8226): > 100 µM (inactive)
- GI50 (CAKI-1): > 100 µM (inactive)
- GI50 (T47D): > 100 µM (inactive)
- GI50 (MDA-MB-231): > 100 µM (inactive)
- GI50 (MCF7): > 100 µM (inactive)
- GI50 (MDA-N): > 100 µM (inactive)
- GI50 (SF-268): > 100 µM (inactive)
- GI50 (UO-31): > 100 µM (inactive)
- GI50 (SF-539): > 100 µM (inactive)
- GI50 (SK-MEL-5): > 100 µM (inactive)
- GI50 (OVCAR-4): > 100 µM (inactive)
- GI50 (OVCAR-8): > 100 µM (inactive)
- GI50 (MOLT-4): > 100 µM (inactive)
- GI50 (BT-549): > 100 µM (inactive)
- GI50 (Hs-578T): > 100 µM (inactive)
- GI50 (A498): > 100 µM (inactive)
- GI50 (KM12): > 100 µM (inactive)
- GI50 (UACC-257): > 100 µM (inactive)
- GI50 (IGROV-1): > 100 µM (inactive)
- GI50 (MDA-MB-435): > 100 µM (inactive)
- GI50 (NCI-H460): > 100 µM (inactive)
- GI50 (EKVX): > 100 µM (inactive)
- GI50 (PC-3): > 100 µM (inactive)
- GI50 (M14): > 100 µM (inactive)
- GI50 (SNB-75): 45.4 µM (inactive)
- GI50 (U-251): > 100 µM (inactive)
- GI50 (SK-OV-3): > 100 µM (inactive)
- GI50 (K562): > 100 µM (inactive)
